Assay results from patent US20120245180A1, “COMBINATION” (GlaxoSmithKline LLC, priority 2009, published 2012).
Like-named read-outs stand apart in the source and are kept apart here.

Columns and labels:
[1] = test system: hepatocellular carcinoma (HCC) cell lines; experiment: Cell growth inhibition, panel of 10 HCC cell lines; format: cell-based, human; conditions: for IC50: Homo sapiens
Protocol: (§1) Human tumor cell lines from hepatocellular carcinoma (HCC), C3A, Hep3B, HepG2, PLC/PRF/5, SNU182, SNU387, SNU398, SNU423, SNU449 and SNU475 were purchased from the ATCC. Human breast tumor cell lines, HCC2218, HCC1419, BT-474, SK-BR-3, UACC893, JIMT-1, MDA-MB-361, HCC202, MDA-MB-175-VII, HCC1569, HCC1937, HCC38, MDA-MB-157, HCC1954, HCC1500, BT483, KPL-1, SUM225 and ZR-75-1 from ATCC, SUM52 and SUM190 from Asterand, PLC (Detroit Mich.), were cultured in RPMI 1640 medium containing 10% FBS; SKBR3-W13 and BT-474-J4 cultured in RPMI 1640 medium containing 10% FBS and 1 μM lapatinib; KPL4 line was kindly provided by Dr Junichi Kurebayashi (Kawasaki Medical School, Okayama, Japan) and cultured in DMEM containing 5% FBS. JIMT-1 from European Collection of Cell Cultures (UK), is a line derived from a patient clinically resistant to trastuzumab (Herceptin®). SK-BR-3-W13 is a single cell clone isolated by a cloning cylinder after a single treatment of SK-BR-3 cells with 0.5 μM lapatinib. BT-474-J4 is a single cell clone derived from a pool of BT-474 cells that were selected to grow in lapatinib to a concentration of 3 μM.
(§2) Cells were seeded in a 96-well tissue culture plate (NUNC 136102) of RPMI medium containing 10% FBS at 500-2,000 cells per well. Approximately 24 hours after plating, cells were exposed to ten, two-fold or three-fold serial dilutions of either Compound A or B or the combination of the two agents at a 2:1 molar ratio (Compounds A and B respectively). In some cases, cells were grown in RPMI media containing 10% FBS and in the presence or absence of 2 ng/mL hepatocyte growth factor (HGF). Cells were incubated in the presence of compounds for 3 days. ATP levels were determined by adding Cell Titer Glo® (Promega) according to the manufacturer's protocol. Briefly, Cell Titer Glo® was added to each plate, incubated for 20 minutes then luminescent signal was read on the SpectraMax L plate reader with a 0.5 sec integration time. All assays were run at least in duplicate.
(§3) Inhibition of cell growth was estimated after treatment with compound or combination of compounds for three days and comparing the signal to cells treated with vehicle (DMSO). Cell growth was calculated relative to vehicle (DMSO) treated control wells. Concentration of compound that inhibits 50% of control cell growth (IC50) was back-interpolated when y=50% of DMSO treated control wells using nonlinear regression with the equation: […]
(§4) where A is the minimum response (ymin), B is the maximum response (Ymax), C is the inflection point of the curve (EC50) and D is the Hill coefficient.
(§5) Combination effects on potency were evaluated using the Combination Index (CI) and Excess Over Highest Single Agent (EHOSA) methods.

BT474 = experiment: Cell growth inhibition assay, breast tumor cell line (Cell Titer Glo); format: cell-based; conditions: Homo sapiens, BT-474, 72 h, BT474 (HER2+), 3 days
Protocol: as §1, §2, §3, §4, §5
(§6) DNA Copy number data on the HER2 gene was collected for all breast cancer cell lines using the Affymetrix 500K chip (Affymetrix Inc, Sunnyvale, Calif.). Briefly DNA was extracted from each line, digested with the restriction enzyme Nsp or Sty, ligated to an adaptor and amplified by PCR. After PCR, DNA was fragmented, labeled, denatured, and hybridized to the Affymetrix 500K chip. Upon completion of hybridization, each assay was washed and stained. Image data were acquired. Similarly collected data from a panel 10 diploid non-tumorigenic lymphoblastic cell lines were used to calculate DNA copy number. All ‘SNP Chip’ images ('CEL files'), were extracted, read and normalized using the dChip software package (Lin et al. 2004. Bioinformatics. 20:1233-40). SNP-wise ‘copy-number ratios’ (log2 scale) were calculated for all cancer cell lines using the lymphoblastic reference panel and analyzed by circular binary segmentation to reduce noise (Olshen et al. 2004. Biostatistics. 5:557-72). Cell lines with log2 ratios of HER2>0.65 were considered HER2+.

MDA-MB-157 = experiment: as above; format: cell-based; conditions: Homo sapiens, 72 h, MDA-MB-157 (HER2−), 3 days
Protocol: as §1, §2, §3, §4, §5, §6

MDA-MB-175-VII = experiment: as above; format: cell-based; conditions: Homo sapiens, 72 h, MDA-MB-175-VII (HER2−), 3 days
Protocol: as §1, §2, §3, §4, §5, §6

HCC202 = experiment: as above; format: cell-based; conditions: Homo sapiens, 72 h, HCC202 (HER2+), 3 days
Protocol: as §1, §2, §3, §4, §5, §6

JIMT-1 = experiment: as above; format: cell-based; conditions: Homo sapiens, 72 h, JIMT-1 (HER2+), 3 days
Protocol: as §1, §2, §3, §4, §5, §6

KPL1 = experiment: as above; format: cell-based; conditions: Homo sapiens, KPL-1, 72 h, KPL1 (HER2−), 3 days
Protocol: as §1, §2, §3, §4, §5, §6

HCC2218 = experiment: as above; format: cell-based; conditions: Homo sapiens, 72 h, HCC2218 (HER2+), 3 days
Protocol: as §1, §2, §3, §4, §5, §6

BT474-J4 = experiment: as above; format: cell-based; conditions: Homo sapiens, 72 h, BT474-J4 (HER2+), 3 days
Protocol: as §1, §2, §3, §4, §5, §6

SK-BR-3 = experiment: as above; format: cell-based; conditions: Homo sapiens, 72 h, SK-BR-3 (HER2+), 3 days
Protocol: as §1, §2, §3, §4, §5, §6

ZR-75-1 = experiment: as above; format: cell-based; conditions: Homo sapiens, 72 h, ZR-75-1 (HER2−), 3 days
Protocol: as §1, §2, §3, §4, §5, §6

BT483 = experiment: as above; format: cell-based; conditions: Homo sapiens, BT-483, 72 h, BT483 (HER2−), 3 days
Protocol: as §1, §2, §3, §4, §5, §6

[2] = test system: Human breast tumor cell lines; experiment: Cell growth inhibition, panel of breast tumor cell lines; format: cell-based
Protocol: Human tumor cell lines from hepatocellular carcinoma (HCC), C3A, Hep3B, HepG2, PLC/PRF/5, SNU182, SNU387, SNU398, SNU423, SNU449 and SNU475 were purchased from the ATCC. […]
Cells were seeded in a 96-well tissue culture plate (NUNC 136102) of RPMI medium containing 10% FBS at 500-2,000 cells per well. […] ATP levels were determined by adding Cell Titer Glo® (Promega) according to the manufacturer's protocol. Briefly, Cell Titer Glo® was added to each plate, incubated for 20 minutes then luminescent signal was read on the SpectraMax L plate reader with a 0.5 sec integration time. […]
Inhibition of cell growth was estimated after treatment with compound or combination of compounds for three days and comparing the signal to cells treated with vehicle (DMSO). Cell growth was calculated relative to vehicle (DMSO) treated control wells. […]
as §5
DNA Copy number data on the HER2 gene was collected for all breast cancer cell lines using the Affymetrix 500K chip (Affymetrix Inc, Sunnyvale, Calif.). […] All ‘SNP Chip’ images ('CEL files'), were extracted, read and normalized using the dChip software package (Lin et al. 2004. Bioinformatics. 20:1233-40). […]

[3] = read-out: Single agent IC50, Compound A
[4] = read-out: Single agent IC50, Compound B

In the case of `CC(=O)Nc1cccc(-n2c(=O)n(C3CC3)c(=O)c3c(Nc4ccc(I)cc4F)n(C)c(=O)c(C)c32)c1` [Compound A, N-{3-[3-cyclopropyl-5-[(2-fluoro-4-iodophenyl)amino]-6,8-dimethyl-2,4,7-trioxo-3,4,6,7-tetrahydropyrido[4,3-d]pyrimidin-1(2H)-yl]phenyl}acetamide], the IC50 ([1]; SNU 182 and PLC/PRF/5 epithelial-like cell lines) is reported as 1200 to 2800 nM, the IC50 ([1]; epithelial-like HCC cell lines HepG2, C3A and Hep3B) is reported as < 37 nM and the IC50 ([1]; mesenchymal-like HCC cell lines SNU387 and SNU423) is reported as 74 to 577 nM. The “sensitivity to cell growth inhibition” value ([1]; mesenchymal-like cell lines SNU398, SNU449 and SNU475) was “not sensitive”, the IC50 (BT474; [3]) was > 1000 nM and the IC50 (MDA-MB-157; [3]) was > 1000 nM. The IC50 (MDA-MB-175-VII; [3]) was 99 ± 97 nM, the IC50 (HCC202; [3]) was > 1000 nM and the IC50 (JIMT-1; [3]) was > 1000 nM. The IC50 (KPL1; [3]) was > 1000 nM, the IC50 (HCC2218; [3]) was > 1000 nM and the IC50 (BT474-J4; [3]) was > 1000 nM. The IC50 (SK-BR-3; [3]) was > 1000 nM, the IC50 (ZR-75-1; [3]) was > 1000 nM and the IC50 (BT483; [3]) was > 1000 nM. For the same molecule, the IC50 ([2]; SUM52 and MDA-MB-17511) was ≤ 99 nM.
In the case of `COc1ncc(-c2ccc3nccc(-c4ccnnc4)c3c2)cc1NS(=O)(=O)c1ccc(F)cc1F` [Compound B, 2,4-difluoro-N-{2-(methyloxy)-5-[4-(4-pyridazinyl)-6-quinolinyl]-3-pyridinyl}benzenesulfonamide], the IC50 ([1]; all 10 HCC lines) is reported as < 103 nM, the IC50 (BT474; [4]) is reported as 30 ± 7 nM and the IC50 (MDA-MB-157; [4]) is reported as > 1000 nM. For the same molecule, the IC50 (MDA-MB-175-VII; [4]) was 7 ± 1 nM, the IC50 (HCC202; [4]) was 45 ± 4 nM and the IC50 (JIMT-1; [4]) was 28 ± 5 nM. For the same molecule, the IC50 (KPL1; [4]) was 8 ± 4 nM, the IC50 (HCC2218; [4]) was 18 ± 13 nM and the IC50 (BT474-J4; [4]) was 14 ± 8 nM. It also gave an IC50 (SK-BR-3; [4]) of 24 ± 20 nM, an IC50 (ZR-75-1; [4]) of 6 ± 1 nM and an IC50 (BT483; [4]) of 106 ± 81 nM. The IC50 ([2]; all lines except HCC1937, SK-Br-3-W13 and MDA-MB-157) was < 100 nM.
